In brackets after ≈: the same amount, converted by molar mass.
Columns and labels:
Type in all cases: functional
[1] = system: Mycobacterium tuberculosis; experiment: Growth inhibition of Mycobacterium tuberculosis H37Rv at 6.25 ug/ml after 28 days by Lowenstein-Jensen method; conditions: 672 h, read-out: GI
[2] = system: Candida albicans; experiment: Antifungal activity against Candida albicans MTCC 227 after overnight incubation by broth microdilution method
[3] = system: Aspergillus fumigatus; experiment: Antifungal activity against Aspergillus fumigatus MTCC 3008 after overnight incubation by broth microdilution method
[4] = system: Vibrio cholerae; experiment: Antibacterial activity against Vibrio cholerae MTCC 3906 after overnight incubation by broth microdilution method
[5] = system: Salmonella typhi; experiment: Antibacterial activity against Salmonella enterica subsp. enterica serovar Typhi MTCC 98 after overnight incubation by broth microdilution method
[6] = system: Escherichia coli; experiment: Antibacterial activity against Escherichia coli MTCC 443 after overnight incubation by broth microdilution method
[7] = system: Clostridium tetani; experiment: Antibacterial activity against Clostridium tetani MTCC 449 after overnight incubation by broth microdilution method
[8] = system: Streptococcus pneumoniae; experiment: Antibacterial activity against Streptococcus pneumoniae MTCC 1936 after overnight incubation by broth microdilution method
[9] = system: Bacillus subtilis; experiment: Antibacterial activity against Bacillus subtilis MTCC 441 after overnight incubation by broth microdilution method
[10] = system: Mycobacterium tuberculosis; experiment: Antitubercular activity against Mycobacterium tuberculosis H37Rv after 28 days by Lowenstein-Jensen method; conditions: 672 h

Structure (SMILES) | inhibition of growth at 6.25 µg/mL [1] [%] | MIC99 [2] [µg/mL] | MIC99 [3] [µg/mL] | MIC99 [4] [µg/mL] | MIC99 [5] [µg/mL] | MIC99 [6] [µg/mL] | MIC99 [7] [µg/mL] | MIC99 [8] [µg/mL] | MIC99 [9] [µg/mL] | MIC [10] [µg/mL]
Cc1ccc2c(c1)nc1c(C#N)c(-c3cc4ccccc4nc3Oc3ccccc3)c(C#N)c(N)n12 | 49 | 500 (≈ 1070 µM) | 500 (≈ 1070 µM) | 500 (≈ 1070 µM) | 200 (≈ 429 µM) | 100 (≈ 214 µM) | 250 (≈ 536 µM) | 250 (≈ 536 µM) | 200 (≈ 429 µM) | –
COc1ccc(Oc2nc3ccccc3cc2-c2c(C#N)c(N)n3c(nc4cc(C)ccc43)c2C#N)cc1 | 64 | 200 (≈ 403 µM) | 1000 (≈ 2010 µM) | 250 (≈ 503 µM) | 125 (≈ 252 µM) | 100 (≈ 201 µM) | 200 (≈ 403 µM) | 250 (≈ 503 µM) | 250 (≈ 503 µM) | –
Cc1ccc2c(c1)nc1c(C#N)c(-c3cc4ccccc4nc3Oc3ccc(F)cc3)c(C#N)c(N)n12 | 99 | 250 (≈ 516 µM) | > 1000 | 500 (≈ 1030 µM) | 125 (≈ 258 µM) | 62.5 (≈ 129 µM) | 250 (≈ 516 µM) | 100 (≈ 206 µM) | 500 (≈ 1030 µM) | 6.25 (≈ 12.9 µM)
Cc1ccc2nc(Oc3ccccc3)c(-c3c(C#N)c(N)n4c(nc5cc(C)ccc54)c3C#N)cc2c1 | 71 | 500 (≈ 1040 µM) | > 1000 | 200 (≈ 416 µM) | 250 (≈ 520 µM) | 250 (≈ 520 µM) | 250 (≈ 520 µM) | 100 (≈ 208 µM) | 500 (≈ 1040 µM) | –
Cc1ccc(Oc2nc3ccc(C)cc3cc2-c2c(C#N)c(N)n3c(nc4cc(C)ccc43)c2C#N)cc1 | 58 | 500 (≈ 1010 µM) | 500 (≈ 1010 µM) | 125 (≈ 253 µM) | 250 (≈ 506 µM) | 200 (≈ 404 µM) | 125 (≈ 253 µM) | 250 (≈ 506 µM) | 200 (≈ 404 µM) | –
COc1ccc(Oc2nc3ccc(C)cc3cc2-c2c(C#N)c(N)n3c(nc4cc(C)ccc43)c2C#N)cc1 | 25 | 1000 (≈ 1960 µM) | > 1000 | 200 (≈ 392 µM) | 250 (≈ 490 µM) | 250 (≈ 490 µM) | 100 (≈ 196 µM) | 125 (≈ 245 µM) | 125 (≈ 245 µM) | –
Cc1ccc2nc(Oc3ccc(F)cc3)c(-c3c(C#N)c(N)n4c(nc5cc(C)ccc54)c3C#N)cc2c1 | 97 | > 1000 | > 1000 | 100 (≈ 201 µM) | 200 (≈ 401 µM) | 200 (≈ 401 µM) | 100 (≈ 201 µM) | 200 (≈ 401 µM) | 250 (≈ 501 µM) | 12.5 (≈ 25.1 µM)
COc1ccc2nc(Oc3ccccc3)c(-c3c(C#N)c(N)n4c(nc5cc(C)ccc54)c3C#N)cc2c1 | 78 | 1000 (≈ 2010 µM) | 500 (≈ 1010 µM) | 250 (≈ 503 µM) | 100 (≈ 201 µM) | 62.5 (≈ 126 µM) | 250 (≈ 503 µM) | 250 (≈ 503 µM) | 250 (≈ 503 µM) | –
N#Cc1c(-c2cc3ccccc3nc2Oc2ccccc2)c(C#N)c2nc3ccccc3n2c1N | 80 | 1000 (≈ 2210 µM) | 500 (≈ 1110 µM) | 200 (≈ 442 µM) | 250 (≈ 553 µM) | 250 (≈ 553 µM) | 100 (≈ 221 µM) | 62.5 (≈ 138 µM) | 100 (≈ 221 µM) | –
CC1(C)S[C@@H]2[C@H](NC(=O)[C@H](N)c3ccccc3)C(=O)N2[C@H]1C(=O)O [AMPICILLIN] | – | – | – | 100 (≈ 286 µM) | 100 (≈ 286 µM) | 100 (≈ 286 µM) | 250 (≈ 715 µM) | 100 (≈ 286 µM) | 250 (≈ 715 µM) | –
O=C(O)c1cn(C2CC2)c2cc(N3CCNCC3)c(F)cc2c1=O [CIPROFLOXACIN] | – | – | – | 25 (≈ 75.4 µM) | 25 (≈ 75.4 µM) | 25 (≈ 75.4 µM) | – | 50 (≈ 151 µM) | 50 (≈ 151 µM) | –
COC1=CC(=O)C[C@@H](C)[C@]12Oc1c(Cl)c(OC)cc(OC)c1C2=O [GRISEOFULVIN] | – | 500 (≈ 1420 µM) | 100 (≈ 283 µM) | – | – | – | – | – | – | –
NNC(=O)c1ccncc1 [ISONIAZID] | 99 | – | – | – | – | – | – | – | – | 0.2 (≈ 1.46 µM)
CCn1cc(C(=O)O)c(=O)c2cc(F)c(N3CCNCC3)cc21 [NORFLOXACIN] | – | – | – | 10 (≈ 31.3 µM) | 10 (≈ 31.3 µM) | 10 (≈ 31.3 µM) | 50 (≈ 157 µM) | 10 (≈ 31.3 µM) | 100 (≈ 313 µM) | –
CO[C@H]1/C=C/O[C@@]2(C)Oc3c(C)c(O)c4c(O)c(c(/C=N/N5CCN(C)CC5)c(O)c4c3C2=O)NC(=O)/C(C)=C\C=C\[C@H](C)[C@H](O)[C@@H](C)[C@@H](O)[C@@H](C)[C@H](OC(C)=O)[C@@H]1C [RIFAMPIN] | 98 | – | – | – | – | – | – | – | – | 40 (≈ 48.6 µM)

Reference: ChEMBL document CHEMBL3046907, “Microwave-assisted synthesis of pyrido[1,2-a]benzimidazole derivatives of -aryloxyquinoline and their antimicrobial and antituberculosis activities” (2013)
